Measurements taken from US7649002B2, “(3,5-dimethylpiperidin-1yl)(4-phenylpyrrolidin-3-yl)methanone derivatives as MCR4 agonists” (Pfizer Inc, priority 2004, dated 2010).

Molecular target: T1, human MCR1 receptor (Homo sapiens, UniProt Q01726)
T1 construct: expressed in transfected cells
Assay: MCR1 standard functional assay (Protocol A): cAMP AlphaScreen in HEK cells
Assay type: cell-based
Settings: for EC50: Protocol A
Description: Stimulation of adenylate cyclase following receptor activation is a widely used measure of functional activity for a number of receptor systems. The functional assay to measure cyclic AMP (cAMP) utilises human embryonic kidney (HEK) cells that stably express the human melanocortin MCR1, MCR3 or MCR4 receptor. Activation of MCR1, MCR3 or MCR4 receptors stimulates adenylate cyclase, generating cAMP, which is measured using AlphaScreen™ (PerkinElmer assay kits.
The AlphaScreen™ cAMP assay kit consists of ‘donor beads’, ‘acceptor beads’, and biotinylated cAMP which links the different beads together. Excitation of this linked complex at […] in the Fusion™-α microplate analyser results in light emission between […].
(i) MCR1. MCR3 and MCR4 Standard Functional Assay Methodology [Assay Protocol A, B AND C Respectively]
Determination of activity against the human MCR1, MCR3 and MCR4 receptor subtypes was carried out for compounds according to the present invention using three immortalised human embryonic kidney (HEK) cell lines that had been biologically engineered to express the human melanocortin MCR1, MCR3 or MCR4 receptor subtypes. These cell lines were engineered using protocols akin to those outlined by Gouarderes et al (Gouarderes, C., (2002) Neuroscience, 115(2); 349-361).
Such-compound-induced activation of these MCR1, MCR3 or MCR4 receptors lead to the stimulation of the cellular enzyme adenylate cyclase, which in turn lead to the cellular generation, and intra-cellular accumulation, of cyclic adenosine monophosphate (cAMP). […] Intracellular levels of cAMP were quantified using the commercially available AlphaScreen™ assay kits from PerkinElmer. A detailed assay protocol and an explanation of the concept underlying this kit is available through the PerkinElmer website (www.perkinelmer.com). The protocol listed below provides a summary this information.
The quantity of intracellular cAMP produced by compound-induced activation of the MCR1, MCR3 and MCR4 receptors in these three cell lines was measured using a Fusion™-α microplate analyser set to stimulate at a wavelength of 680 nm and to measure the energy emitted at wave lengths between […]. Compound-induced increases in MCR1, MCR3 or MCR4 receptor activation were subsequently quantified as a decrease in the quantity of light emitted at wavelengths between […]. Data analysis was subsequently performed using a curve-fitting program and the apparent potency of the test compound (expressed as an EC50 and defined as the effective compound concentration that elicited 50% of the maximum compound-induced response) extrapolated from the fitted curve.
Stimulation buffer (as per AlphaScreen™ protocol): HBSS supplemented with 0.5 mM IBMX, 5 mM HEPES, 0.1% (w/v) BSA and 10 mM MgCl2.
Lysis buffer (as per AlphaScreen™ protocol): 5 mM HEPES solution supplemented with 0.1% (w/v) BSA and 0.3% (v/v) Tween-20.
Detection mix (as per AlphaScreen™ protocol): Lysis buffer supplemented with the biotinylated cAMP (10 nM) and Donor beads (10 μg/ml) as supplied in the AlphaScreenT cAMP assay kit.
For the MCR1, MCR3 and MCR4 standard functional assay methodologies compounds were initially dissolved in DMSO to give a compound concentration of 4 mM and then further diluted for the assay in stimulation buffer to give actual concentrations 2-fold greater than that desired as the final assay concentration.
The three HEK cell lines, as detailed hereinbefore, expressing the human MCR1, MCR3 or MCR4 receptor subtypes were grown in T225 vent cap flasks containing 50 ml of growth medium (DMEM supplemented with 10% (v/v) FCS, 2 mM L-Glutamine, 25 mM HEPES and 1.0 mg/ml Geneticin) and maintained in a cell incubator at a temperature of 37° C. and in an environment containing 5% CO2. Cells were harvested when they reached 80-90% confluency by first removing the existing growth medium and then washing with PBS that had been pre-warmed to a temperature of 37° C. […]

T1 sequence (Q01726 whole entry): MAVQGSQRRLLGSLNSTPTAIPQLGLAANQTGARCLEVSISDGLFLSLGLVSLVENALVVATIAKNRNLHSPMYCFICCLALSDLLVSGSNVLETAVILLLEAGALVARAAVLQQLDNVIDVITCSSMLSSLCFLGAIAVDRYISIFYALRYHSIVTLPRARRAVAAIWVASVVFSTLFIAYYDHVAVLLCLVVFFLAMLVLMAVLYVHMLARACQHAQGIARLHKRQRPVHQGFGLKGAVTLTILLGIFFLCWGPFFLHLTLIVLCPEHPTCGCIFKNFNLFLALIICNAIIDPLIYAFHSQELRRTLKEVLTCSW

**Q.** Which results are given for C[C@@H]1CN(C(=O)[C@@H]2CN(C(C)(C)C)C[C@H]2c2ccc(F)cc2F)C[C@H](C)[C@@]1(O)c1ccccc1 [Example 1, (3R,4R,5S)-1-{[(3S,4R)-1-tert-Butyl-4-(24-difluorophenyl)pyrrolidin-3-yl]carbonyl}-3,5-dimethyl-4-phenylpiperidin-4-ol]?
**A.** Selectivity MCR1/MCR4 (Table 5, MCR4 by Protocol C): 324; EC50 (Table 5): 8100 nM; Selectivity MCR1/MCR4 (Table 6, MCR4 by Protocol E): 125

**Q.** How did the “Selectivity MCR1/MCR4” value (Table 6, MCR4 by Protocol E) turn out when C[C@@H]1CN(C(=O)[C@@H]2CN(C(C)(C)C)C[C@H]2c2ccc(F)cc2F)C[C@H](C)[C@@]1(O)c1ccccc1.Cl [Example 5, (3R,4R,5S)-1-{[(3S,4R)-1-tert-Butyl-4-(2,4-difluorophenyl)pyrrolidin-3-yl]carbonyl}-3,5-dimethyl-4-phenylpiperidin-4-ol hydrochloride] was run?
**A.** 125

**Q.** What about the EC50 (Table 6) of the same molecule?
**A.** 1200 nM

**Q.** Which results are given for CC(C)N1C[C@@H](C(=O)N2C[C@@H](C)[C@](O)(c3ccccc3)[C@@H](C)C2)[C@H](c2ccc(F)cc2F)C1.Cl [Example 6, (3R,4R,5S)-1-{[(3S,4R)-4-(2,4-Difluorophenyl)-1-isopropylpyrrolidin-3-yl]carbonyl}-3,5-dimethyl-4-phenylpiperidin-4-ol hydrochloride]?
**A.** Selectivity MCR1/MCR4 (Table 6, MCR4 by Protocol E): 28; EC50 (Table 6): 541 nM

**Q.** Which “Selectivity MCR1/MCR4” value (Table 6, MCR4 by Protocol E) does the source give for C[C@@H]1CN(C(=O)[C@@H]2CNC[C@H]2c2ccc(F)cc2F)C[C@H](C)[C@@]1(O)c1ccc(F)cc1.Cl [Example 12, (3R,4R,5S)-1-{[(3S,4R)-4-(2,4-difluorophenyl)pyrrolidin-3-yl]carbonyl}-4-(4-fluorophenyl)-3,5-dimethylpiperidin-4-ol hydrochloride] here?
**A.** 9

**Q.** What about the EC50 (Table 6) of the same molecule?
**A.** 667 nM

**Q.** What does the source list for C[C@@H]1CN(C(=O)[C@@H]2CN(C(C)(C)C)C[C@H]2c2ccc(F)cc2F)C[C@H](C)[C@@]1(O)c1ccc(Cl)cc1.Cl [Example 13, (3R,4R,5S)-1-{[(3S,4R)-1-tert-butyl-4-(2,4-difluorophenyl)pyrrolidin-3-yl]carbonyl}-4-(4-chlorophenyl)-3,5-dimethylpiperidin-4-ol hydrochloride]?
**A.** Selectivity MCR1/MCR4 (Table 6, MCR4 by Protocol E): 311; EC50 (Table 6): 8400 nM

**Q.** C[C@@H]1CN(C(=O)[C@@H]2CN(c3ccccn3)C[C@H]2c2ccc(F)cc2F)C[C@H](C)[C@@]1(O)c1ccccc1.Cl [Example 31, (3R,4R,5S)-1-{[(3S,4R)-4-(2,4-difluorophenyl)-1-pyridin-2-ylpyrrolidin-3-yl]carbonyl}-3,5-dimethyl-4-phenylpiperidin-4-ol hydrochloride] was tested. Which “Selectivity MCR1/MCR4” value (Table 6, MCR4 by Protocol E) did it give?
**A.** 2969

**Q.** And the EC50 (Table 6)?
**A.** 10700 nM

**Q.** How did the “Selectivity MCR1/MCR4” value (Table 6, MCR4 by Protocol E) turn out when C[C@@H]1CN(C(=O)[C@@H]2CN(c3cccnn3)C[C@H]2c2ccc(F)cc2F)C[C@H](C)[C@@]1(O)c1ccccc1.Cl [Example 35, (3R,4R,5S)-1-{[(3S,4R)-4-(2,4-difluorophenyl)-1-pyridazin-3-ylpyrrolidin-3-yl]carbonyl}-3,5-dimethyl-4-phenylpiperidin-4-ol hydrochloride] was run?
**A.** 847

**Q.** What about the EC50 (Table 6) of the same molecule?
**A.** 1270 nM
